Series [1] can be described thus: Cytotoxicity against African green monkey Vero cells. The following applies: African green monkey (Chlorocebus sabaeus). The series is classed as toxicity, cell-based.
Series [2] can be described thus: Binding affinity to full length Mycobacterium tuberculosis ClpC1 assessed as dissociation constant by SPR analysis. In general terms: Surface plasmon resonance follows binding to a sensor surface in real time, without labels.
The subject of series [3] is Mycobacteroides abscessus. The series is described as follows: Antimycobacterial activity against Mycobacterium abscessus ATCC 19977 assessed as reduction in bacterial growth by microplate Alamar blue assay. The format is functional. On the technique in general: Resazurin is reduced to fluorescent resorufin, in cell work by metabolically active cells.
A short description of series [4]: Binding affinity to N-terminal Mycobacterium tuberculosis ClpC1 assessed as dissociation constant by SPR analysis.
The test system of series [5] is Mycobacterium tuberculosis. Nature of the series: Antimycobacterial activity against Mycobacterium tuberculosis H37Rv ATCC 27294 assessed as reduction in bacterial growth by microplate alamar blue assay. The series is classed as functional.
The nature of series [6]: Selectivity index, ratio of IC50 for cytotoxicity against African green monkey Vero cells to MIC for antimycobacterial activity against Mycobacterium tuberculosis H37Rv ATCC 27294. The series is classed as toxicity, cell-based. The following applies: read-out: Selectivity Index.
The subject of a further series is Mycobacterium avium. Nature of the series: Antimycobacterial activity against Mycobacterium avium assessed as reduction in bacterial growth. The format is functional.

≈ marks a conversion by molar mass, not a printed value.

This is an account of results in ChEMBL document CHEMBL6177961, “Structure-Based Analysis of Semisynthetic Anti-TB Rufomycin Analogues” (J Nat Prod, 2025).

As usually defined, the IC50 is the concentration that gives 50% inhibition. As usually defined, the Kd is the concentration at which binding is half-saturated. Broadly, the MIC is the smallest concentration in the dilution series that meets the test's criterion for growth inhibition. Molecule `C/C=C/C[C@@H]1NC(=O)[C@H](CC(C)C)N2C(=O)[C@H](CC(C)[C@H]2OC)N(C)C(=O)[C@H](C)NC(=O)[C@H](Cc2ccc(OC(C)=O)c([N+](=O)[O-])c2)NC(=O)[C@H](CC(C)C)N(C)C(=O)[C@H](Cc2cn(C(C)(C)[C@H](O)CCl)c3ccccc23)NC1=O` (some centres undefined) displayed a 50% inhibitory concentration (IC50) in series [1] of more than 100000 nM. Besides, the Kd in series [2] was 42 nM; in series [4], 38 nM. Moreover, the values for the MIC (in series [3]; in series [5]; with Mycobacterium avium) were 0.21 µM (≈ 0.238 µg/mL), 0.005 µM (≈ 0.00567 µg/mL) and 0.21 µM (≈ 0.238 µg/mL), respectively. For the same molecule, in series [6], the selectivity ratio is more than 20000.

For `C/C=C/C[C@@H]1NC(=O)[C@H](CC(C)C)N2C(=O)[C@H](CC(C)[C@H]2OC)N(C)C(=O)[C@H](C)NC(=O)[C@H](Cc2ccc(O)c([N+](=O)[O-])c2)NC(=O)[C@H](CC(C)C)N(C)C(=O)[C@H](Cc2cn(C(C)(C)[C@H](O)CCl)c3ccccc23)NC1=O` (some centres undefined), in series [1], the IC50 was more than 100000 nM. Also, the Kd in series [2] came out at 96 nM; in series [4], 66 nM. For the same molecule, the minimum inhibitory concentration (MIC) is 0.25 µM (≈ 0.273 µg/mL) in series [3], 0.005 µM (≈ 0.00546 µg/mL) in series [5] and 0.4 µM (≈ 0.437 µg/mL) with Mycobacterium avium. Further, the selectivity ratio in series [6] was more than 20000.

On to `C/C=C/C[C@@H]1NC(=O)[C@H](CC(C)C)N2C=C(C)C[C@@H](C2=O)N(C)C(=O)[C@H](C)NC(=O)[C@H](Cc2ccc(OC(=O)c3ccccc3)c([N+](=O)[O-])c2)NC(=O)[C@H](CC(C)C)N(C)C(=O)[C@H](Cc2cn(C(C)(C)[C@@H](CCl)OC(=O)c3ccccc3)c3ccccc23)NC1=O`, for which the IC50 in series [1] is more than 100000 nM. In addition, the dissociation constant Kd turned out to be 1100 nM in series [2] and 1400 nM in series [4]. In addition, the MIC was more than 10 µM in series [3], 0.45 µM (≈ 0.571 µg/mL) in series [5] and more than 10 µM in the series with Mycobacterium avium. Moreover, the selectivity ratio in series [6] was more than 220.

With `C/C=C/C[C@@H]1NC(=O)[C@H](CC(C)C)N2C=C(C)C[C@@H](C2=O)N(C)C(=O)[C@H](C)NC(=O)[C@H](Cc2ccc(O)c([N+](=O)[O-])c2)NC(=O)[C@H](CC(C)C)N(C)C(=O)[C@H](Cc2cn(C(C)(C)[C@H](O)CBr)c3ccccc23)NC1=O`, the IC50 in series [1] was more than 100000 nM. The equilibrium dissociation constant (Kd) in series [2] is 350 nM; in series [4] it was 260 nM. Moreover, the minimum inhibitory concentration (MIC) in series [3] came to 0.57 µM (≈ 0.63 µg/mL); in series [5], 0.003 µM (≈ 0.00332 µg/mL); in the series on Mycobacterium avium it was 1.1 µM (≈ 1.22 µg/mL). Also, the selectivity ratio in series [6] is more than 32000.

In series [1], `C/C=C/C[C@@H]1NC(=O)[C@H](CC(C)C)N2C=C(C)C[C@@H](C2=O)N(C)C(=O)[C@H](C)NC(=O)[C@H](Cc2ccc(O)c([N+](=O)[O-])c2)NC(=O)[C@H](CC(C)C)N(C)C(=O)[C@H](Cc2cn(C(C)(C)[C@H]3CO3)c3ccccc23)NC1=O` came in with a concentration for half-maximal inhibition (IC50) of more than 100000 nM. Moreover, the dissociation constant (Kd) in series [2] is 60 nM; in series [4] it was 50 nM. Besides, the values for the minimum inhibitory concentration (MIC) (in series [3]; in series [5]; with Mycobacterium avium) were 0.58 µM (≈ 0.594 µg/mL), 0.003 µM (≈ 0.00307 µg/mL) and 4.1 µM (≈ 4.2 µg/mL), respectively. Further, in series [6], the selectivity ratio was more than 33000.

As to `C/C=C/C[C@@H]1NC(=O)[C@H](CC(C)C)N2C(=O)[C@H](C[C@H](C)[C@H]2OCC)N(C)C(=O)[C@H](C)NC(=O)[C@H](Cc2ccc(O)c([N+](=O)[O-])c2)NC(=O)[C@H](CC(C)C)N(C)C(=O)[C@H](Cc2cn(C(C)(C)[C@H](O)CCl)c3ccccc23)NC1=O`, in series [1], the IC50 is more than 100000 nM. Besides, the equilibrium dissociation constant (Kd) in series [2] turned out to be 87 nM; in series [4], 11 nM. Also, the MIC in series [3] is 0.49 µM (≈ 0.542 µg/mL); in series [5] it was 0.005 µM (≈ 0.00553 µg/mL); in the series on Mycobacterium avium it was 2.2 µM (≈ 2.43 µg/mL). The selectivity ratio in series [6] is more than 19000.

In the case of `C/C=C/C[C@@H]1NC(=O)[C@H](CC(C)C)N2C=C(C)C[C@@H](C2=O)N(C)C(=O)[C@H](C)NC(=O)[C@H](Cc2ccc3ocnc3c2)NC(=O)[C@H](CC(C)C)N(C)C(=O)[C@H](Cc2cn(C(C)(C)[C@H](O)CCl)c3ccccc23)NC1=O`, the 50% inhibitory concentration (IC50) in series [1] is more than 100000 nM. For the same molecule, the Kd was 430 nM in series [2] and 300 nM in series [4]. The MIC in series [3] is 2.4 µM (≈ 2.5 µg/mL); in series [5], 0.12 µM (≈ 0.125 µg/mL); in the series with Mycobacterium avium, more than 10 µM. The selectivity ratio in series [6] was more than 830.

As for `C/C=C/C[C@@H]1NC(=O)[C@H](CC(C)C)N2C=C(C)C[C@@H](C2=O)N(C)C(=O)[C@H](C)NC(=O)[C@H](Cc2ccc3oc(=O)[nH]c3c2)NC(=O)[C@H](CC(C)C)N(C)C(=O)[C@H](Cc2cn(C(C)(C)[C@H](O)CCl)c3ccccc23)NC1=O`, in series [1], the IC50 was more than 100000 nM. Moreover, the Kd in series [2] was found to be 510 nM; in series [4], 430 nM. For the same molecule, the MIC is 2.3 µM (≈ 2.43 µg/mL) in series [3], 0.12 µM (≈ 0.127 µg/mL) in series [5] and more than 10 µM in the series on Mycobacterium avium. Further, the selectivity ratio in series [6] is more than 830.

`C/C=C/C[C@@H]1NC(=O)[C@H](CC(C)C)N2C(=O)[C@H](CC(C)[C@H]2OC)N(C)C(=O)[C@H](C)NC(=O)[C@H](Cc2ccc(O)c([N+](=O)[O-])c2)NC(=O)[C@H](CC(C)C)N(C)C(=O)[C@H](Cc2cn(C(C)(C)[C@H](O)COC)c3ccccc23)NC1=O` (some centres undefined): the IC50 in series [1] was more than 100000 nM. The equilibrium dissociation constant (Kd) in series [2] was determined as 72 nM; in series [4], 75 nM. For the same molecule, the minimum inhibitory concentration (MIC) came out at 0.11 µM (≈ 0.12 µg/mL) in series [3], 0.008 µM (≈ 0.00871 µg/mL) in series [5] and 0.4 µM (≈ 0.435 µg/mL) in the series with Mycobacterium avium. In addition, in series [6], the selectivity ratio is more than 13000.

`C/C=C/C[C@@H]1NC(=O)[C@H](CC(C)C)N2C(=O)[C@H](CC(C)[C@H]2OC)N(C)C(=O)[C@H](C)NC(=O)[C@H](Cc2ccc(OC)c([N+](=O)[O-])c2)NC(=O)[C@H](CC(C)C)N(C)C(=O)[C@H](Cc2cn(C(C)(C)[C@H](O)COC)c3ccccc23)NC1=O` (some centres undefined) came in with a half-inhibitory concentration (IC50) in series [1] of 83000 nM. Besides, the Kd worked out at 40 nM in series [2] and 37 nM in series [4]. Moreover, the values for the MIC (in series [3]; in series [5]; in the series on Mycobacterium avium) were 0.52 µM (≈ 0.573 µg/mL), 0.023 µM (≈ 0.0254 µg/mL) and 4.5 µM (≈ 4.96 µg/mL), respectively. In addition, in series [6], the selectivity ratio came to 3600.

`C/C=C/C[C@@H]1NC(=O)[C@H](CC(C)C)N2C=C(C)C[C@@H](C2=O)N(C)C(=O)[C@H](C)NC(=O)[C@H](Cc2ccc(O)c(NC(=O)CCl)c2)NC(=O)[C@H](CC(C)C)N(C)C(=O)[C@H](Cc2cn(C(C)(C)[C@H](O)CCl)c3ccccc23)NC1=O` had an IC50 in series [1] of more than 100000 nM. Also, the equilibrium dissociation constant (Kd) in series [2] amounted to 310 nM; in series [4], 220 nM. For the same molecule, the MIC in series [3] was 2.2 µM (≈ 2.44 µg/mL); in series [5], 0.098 µM (≈ 0.109 µg/mL); in the series on Mycobacterium avium it was more than 10 µM. Further, in series [6], the selectivity ratio is more than 1000.

`C/C=C/C[C@@H]1NC(=O)[C@H](CC(C)C)N2C(=O)[C@H](C[C@@H](C)[C@@H]2OCCCC)N(C)C(=O)[C@H](C)NC(=O)[C@H](Cc2ccc(O)c([N+](=O)[O-])c2)NC(=O)[C@H](CC(C)C)N(C)C(=O)[C@H](Cc2cn(C(C)(C)[C@H](O)CCl)c3ccccc23)NC1=O` showed an IC50 in series [1] of 95000 nM. Moreover, the equilibrium dissociation constant (Kd) turned out to be 720 nM in series [2] and 600 nM in series [4]. The values for the MIC (in series [3]; in series [5]; in the series on Mycobacterium avium) were 9.4 µM (≈ 10.7 µg/mL), 0.77 µM (≈ 0.874 µg/mL) and more than 10 µM, respectively. For the same molecule, the selectivity ratio in series [6] is 120.
